Measurements as given in ChEMBL document CHEMBL1142400, “An updated steroid benchmark set and its application in the discovery of novel nanomolar ligands of sex hormone-binding globulin” (J Med Chem, 2008).

target: T1, Sex hormone-binding globulin (Homo sapiens, UniProt P04278); experiment: Displacement of [3H]5alpha dihydrotestosterone from human sex hormone binding globulin
T1 sequence (P04278 whole entry): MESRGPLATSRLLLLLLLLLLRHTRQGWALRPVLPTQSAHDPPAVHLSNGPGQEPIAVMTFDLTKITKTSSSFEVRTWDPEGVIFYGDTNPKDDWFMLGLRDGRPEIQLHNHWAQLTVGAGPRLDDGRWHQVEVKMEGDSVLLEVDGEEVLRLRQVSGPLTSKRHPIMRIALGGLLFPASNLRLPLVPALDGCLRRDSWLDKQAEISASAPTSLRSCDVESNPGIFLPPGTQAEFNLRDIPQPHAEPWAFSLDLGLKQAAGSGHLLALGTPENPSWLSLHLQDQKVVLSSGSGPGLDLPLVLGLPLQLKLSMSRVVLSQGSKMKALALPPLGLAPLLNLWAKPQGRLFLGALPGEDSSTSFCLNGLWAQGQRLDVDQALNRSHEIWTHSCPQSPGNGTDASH

Structure (SMILES) | Kd [nM]
C[C@]12CC[C@H]3C(=CCc4cc(O)ccc43)[C@@H]1CC[C@@H]2O | 2.4
C[C@]12CC[C@@H]3c4ccc(O)cc4C=C[C@H]3[C@@H]1CC[C@@H]2O | 1.74
C[C@]12CC[C@H]3[C@@H](CC=C4C[C@@H](O)CC[C@@H]43)[C@@H]1CC[C@@H]2O | 0.288
CC1(C)CC2=C3C=C[C@@]4(C)[C@@H](CC[C@]4(C)O)[C@@H]3CCC2=CC1=O | 138
CC(C)(C)CC(C)(C)c1ccc(O)cc1 | 2140
COc1cc(/C=N/CCc2ccccc2)ccc1O | 589
CCc1cc(C(=O)Cc2ccccc2C)c(O)cc1O | 107
C[C@@H]1CC2=CC(=O)CC[C@]2(C)[C@@]2(F)CC[C@]3(C)[C@@H](O)CC[C@H]3[C@H]12 | 3.09
C#C[C@]1(O)CC[C@H]2[C@@H]3CCC4=C[C@H](O)CC[C@]4(C)C3C(=C)C[C@@]21CC (some centres undefined) | 21.4
Cc1c(Cc2ccccc2)c(=O)oc2c(C)c(O)ccc12 | 2190
C#C[C@]1(O)CC[C@H]2[C@@H]3CC[C@H]4CC(=O)CC[C@]4(C)[C@H]3CC[C@@]21C | 0.182
C[C@]12CC[C@H]3[C@@H](CC[C@H]4CC(=O)C[C@H](CCCCCCN)[C@@]43C)[C@@H]1CC[C@@H]2O | 29.5
C[C@@H]1CC2=CC(=O)C=C[C@]2(C)[C@H]2CC[C@]3(C)[C@@H](O)CC[C@H]3[C@H]12 | 4.37
C[C@H]1C[C@H]2[C@@H]3CC[C@H](O)[C@@]3(C)CC[C@@H]2[C@@]2(C)CCC(=O)C=C12 | 4.37
C[C@]12CC[C@H]3[C@@H](CCC4CC(=O)CC[C@@H]43)[C@@H]1CC[C@@H]2O (some centres undefined) | 4.37
C[C@@H]1C=C2CC(O)CC[C@]2(C)[C@H]2CC[C@@]3(C)[C@@H](CC[C@]3(C)O)[C@H]12 (some centres undefined) | 363
C[C@@H]1CC2=CC(=O)CC[C@@H]2[C@H]2CC[C@@]3(C)C(=CC[C@@H]3O)[C@@H]21 | 0.851
C[C@@]12CCC[C@H]1[C@@H]1CCc3cc(O)ccc3[C@H]1CC2 | 5.01
C#C[C@]1(O)CC[C@H]2[C@H]3[C@H](C(=C)C[C@@]21CC)[C@H]1CC[C@@H](O)C[C@@H]1C[C@H]3C | 5.37
C[C@@H]1C[C@H]2C[C@@H](O)CC[C@]2(C)[C@H]2CC[C@]3(C)[C@@H](O)CC[C@H]3[C@H]12 | 1
C[C@@H]1C[C@H]2CC(=O)CC[C@]2(C)[C@H]2CC[C@@]3(C)[C@@H](CC[C@]3(C)O)[C@H]12 | 0.891
C[C@]12CCC(=O)C[C@@H]1CC[C@@H]1[C@@H]2[C@@H](O)C[C@@]2(C)[C@H]1CC[C@@]2(O)CCCN | 11000
CC1=C2CC[C@H]3[C@@H]4CC[C@H](O)[C@@]4(C)CC[C@@H]3[C@@]2(C)CCC1=O | 0.49
C[C@]12CC[C@@H]3c4cc(I)c(O)cc4CC[C@H]3[C@@H]1CC[C@@H]2O | 0.479
Cc1c(O)ccc(C(=O)Cc2ccccc2Cl)c1O | 2190

Structure (SMILES) | Kd [nM]
Oc1ccc(-c2cc3ccc(O)cc3o2)cc1 | 832
C[C@@H]1CC2=CC(=O)C=C[C@]2(C)[C@H]2CC[C@@]3(C)[C@@H](CC[C@]3(C)O)[C@H]12 | 2.69
C[C@@H]1CC2=CC(=O)CC[C@]2(C)[C@H]2CC[C@]3(C)[C@@H](O)CC[C@H]3[C@H]12 | 1.95
C[C@]1(O)CC[C@H]2[C@@H]3CCC4=CC(=O)CC[C@]4(C)[C@@]3(F)C(=O)C[C@@]21C | 5.89
COc1cc(C(=O)OC2CC3CCC2(C)C3(C)I)ccc1O (centres undefined) | 407
CC[C@H](C1CCC(O)CC1)[C@@H](CC)C1CCC(O)CC1 (some centres undefined) | 28800
CC(=O)[C@@]1(O)CC[C@H]2[C@@H]3CC=C4C[C@@H](O)CC[C@]4(C)[C@H]3CC[C@@]21C | 437
C[C@]12CCC(=O)C[C@@H]1[C@@H](F)C[C@@H]1[C@@H]2CC[C@]2(C)[C@@H](O)CC[C@@H]12 | 0.891
CC[C@H](C1CCCCC1)[C@@H](CC)C1CCCCC1 | 2450
C#C[C@]1(O)CC[C@H]2[C@@H]3CC[C@H]4CC(=O)CC[C@@H]4[C@H]3C(=C)C[C@@]21CC | 1.58
C[C@]12CCC3=C4CCC(=O)C=C4C=C[C@H]3[C@@H]1CC[C@@H]2O | 1150
C#C[C@]1(O)CC[C@H]2[C@@H]3CCC4=C[C@@H](O)CC[C@]4(C)C3C(=C)C[C@@]21CC (some centres undefined) | 13.2
CC1(O)CC[C@H]2[C@@H]3CC=C4CC(O)CC[C@]4(C)[C@H]3CC[C@@]21C (some centres undefined) | 4.37
C#C[C@]1(O)CC[C@H]2[C@@H]3[C@H](C)C=C4CC(O)CC[C@]4(C)[C@H]3CC[C@@]21C (some centres undefined) | 363
C#C[C@]1(O)CC[C@H]2[C@@H]3CC=C4C[C@@H](O)CC[C@]4(C)[C@H]3CC[C@@]21C | 1.23
C[C@@H]1C[C@H]2CC(=O)CC[C@]2(C)[C@H]2CC[C@]3(C)[C@@H](O)CC[C@H]3[C@H]12 | 0.417
C[C@]12CC[C@H]3[C@@H](CCC4=CC(=O)CC[C@@]43C)[C@@H]1C[C@@H](O)[C@@H]2O | 12
C#C[C@]1(O)CC[C@H]2[C@@H]3CC[C@H]4CC(F)(F)CC[C@]4(C)[C@H]3CC[C@@]21C | 4.37
C[C@@H]1CC2CC(=O)CC[C@@H]2[C@H]2CC[C@]3(C)[C@@H](O)CC[C@H]3[C@@H]21 (some centres undefined) | 3.47
C[C@@H]1C[C@H]2C[C@@H](O)CC[C@]2(C)[C@H]2CC[C@@]3(C)[C@@H](CC[C@]3(C)O)[C@H]12 | 3.47
O=C1C[C@@H](c2ccc(O)cc2)Oc2cc(O)cc(O)c21 (stereo in doubt; 82) [NARINGENIN] | 28200
O=C1C[C@@H](c2ccc(O)cc2)Oc2cc(O)cc(O)c21 (stereo in doubt; 90) [NARINGENIN] | 955
COc1cc2c(cc1O)CC[C@@H]1[C@@H]2CC[C@]2(C)[C@@H](O)CC[C@@H]12 [2-METHOXYESTRADIOL] | 0.832
CCCCCCCCCc1ccc(O)cc1 [4-NONYLPHENOL] | 1200
C[C@]12CCC(=O)C=C1CC[C@@H]1[C@@H]2[C@@H](O)C[C@]2(C=O)[C@@H](C(=O)CO)CC[C@@H]12 [ALDOSTERONE] | 4790

Structure (SMILES) | Kd [nM]
C[C@]12CC[C@@H](O)C[C@@H]1CC[C@@H]1[C@@H]2CC[C@]2(C)[C@@H](O)CC[C@@H]12 [ANDROSTANDIOL] | 0.776
C[C@]12CCC(=O)C=C1CC[C@@H]1[C@@H]2CC[C@]2(C)C(=O)CC[C@@H]12 [ANDROSTENEDIONE] | 34.7
C[C@]12CC[C@@H](O)C[C@@H]1CC[C@@H]1[C@@H]2CC[C@]2(C)C(=O)CC[C@@H]12 [ANDROSTERONE] | 70.8
C[C@@H]1CC2=CC(=O)CC[C@]2(C)[C@H]2CC[C@@]3(C)[C@@H](CC[C@]3(C)O)[C@H]12 [BOLASTERONE] | 1.74
C[C@]12C[C@H](O)[C@H]3[C@@H](CCC4=CC(=O)CC[C@@]43C)[C@@H]1CC[C@@H]2C(=O)CO [CORTICOSTERONE] | 457
C[C@]12CCC(=O)C=C1CC[C@@H]1[C@@H]2C(=O)C[C@@]2(C)[C@H]1CC[C@]2(O)C(=O)CO [CORTISONE] | 372
C[C@]12CCC(=O)C=C1CC[C@@H]1[C@@H]2CC[C@@]2(C)[C@H]1CC[C@]2(O)C(=O)CO [CORTODOXONE] | 36.3
C#C[C@]1(O)CC[C@H]2[C@@H]3CCC4=Cc5oncc5C[C@]4(C)[C@H]3CC[C@@]21C [DANAZOL] | 6.31
C#C[C@]1(O)CC[C@H]2[C@@H]3CCC4=CCCC[C@@H]4[C@H]3C(=C)C[C@@]21CC [DESOGESTREL] | 251
C[C@]12CC[C@H]3[C@@H](CCC4=CC(=O)CC[C@@]43C)[C@@H]1CC[C@@H]2C(=O)CO [DESOXYCORTICOSTERONE] | 41.7
C[C@]12CCc3c(ccc4cc(O)ccc34)[C@@H]1CCC2=O [EQUILENIN] | 2.4
C[C@]12CC[C@H]3C(=CCc4cc(O)ccc43)[C@@H]1CCC2=O [EQUILIN] | 3.09
C[C@]12CC[C@@H]3c4ccc(OC(=O)c5ccccc5)cc4CC[C@H]3[C@@H]1CC[C@@H]2O [ESTRADIOL BENZOATE] | 1150
C[C@]12CC[C@@H]3c4ccc(O)cc4CC[C@H]3[C@@H]1C[C@@H](O)[C@@H]2O [ESTRIOL] | 234
C[C@]12CC[C@@H]3c4ccc(O)cc4CC[C@H]3[C@@H]1CCC2=O [ESTRONE] | 6.61
C#C[C@]1(O)CC[C@H]2[C@@H]3CCc4cc(O)ccc4[C@H]3CC[C@@]21C [ETHINYL ESTRADIOL] | 155
C#C[C@]1(O)CC[C@H]2[C@@H]3CCC4=CC(=O)CC[C@]4(C)[C@H]3CC[C@@]21C [ETHISTERONE] | 1.66
C[C@]12CC[C@@H](O)C[C@H]1CC[C@@H]1[C@@H]2CC[C@]2(C)C(=O)CC[C@@H]12 [ETIOCHOLANOLONE] | 708
C#C[C@]1(O)CC[C@H]2[C@@H]3CCC4=CC(=O)CC[C@@H]4[C@H]3C(=C)C[C@@]21CC [ETONOGESTREL] | 5.89
O=c1c(-c2ccc(O)cc2)coc2cc(O)cc(O)c12 [GENISTEIN] | 39800
C#C[C@]1(O)CC[C@H]2[C@@H]3CCC4=CC(=O)CCC4=C3C=C[C@@]21CC [GESTRINONE] | 7.76
C[C@]12CCC(=O)C=C1CC[C@@H]1[C@@H]2[C@@H](O)C[C@@]2(C)[C@H]1CC[C@]2(O)C(=O)CO [HYDROCORTISONE] | 631
CC(=O)[C@@]1(O)CC[C@H]2[C@@H]3CCC4=CC(=O)CC[C@]4(C)[C@H]3CC[C@@]21C [HYDROXYPROGESTERONE] | 100
COc1cc(C[C@H]2COC(=O)[C@@H]2Cc2ccc(O)c(OC)c2)ccc1O [MATAIRESINOL] | 309
